# Reference: patent publication US8318297B2, “Titanate nanowire, titanate nanowire scaffold, and processes of making same” (Board of Trustees of the University of Arkansas, priority 2007, dated 2012)
# Assay: Controlled release of crystal violet from nanowire scaffolds on Ti foil
# Type: physicochemical
# Conditions: for Release (%): crystal violet released from nanowire scaffolds on Ti, 10 mL fresh water
# Protocol: A piece of dried titanium foil (2.2 cm^2) that was coated with nanofiber scaffolds was soaked in 100 mL of 0.001 mol/L crystal violet (C25H30ClN3, as a simulated drug) solution for 12 hours at room temperature. Then, the foil was collected, rinsed with deionized water, dried at room temperature overnight, and placed in 10 mL of fresh water for releasing the crystal violet molecules. The released crystal violet was measured on the Beckman DU-530 UV-Visible Spectrometer. A piece of dried titanium foil (2.2 cm^2) pre-coated with the nanowire scaffolds was soaked in 100 mL of 0.001 mol/L crystal violet (C25H30ClN3, as a simulated drug) solution for 12 hrs at room temperature. Then, the foil was collected, rinsed with deionized water, dried at room temperature overnight, and was then placed in 10 mL of fresh water for releasing the crystal violet molecules. The released crystal violet was measured on the Beckman DU-530 UV-Visible Spectrometer.
smiles,measurement,setting,value
"CN(C)c1ccc(C(=C2C=CC(=[N+](C)C)C=C2)c2ccc(N(C)C)cc2)cc1 [Crystal violet, crystal violet]",Release (%),time 0 hours,22.6%
same,Release (%),time 2 hours,82.0%
same,Release (%),"time 2 hours, listed as model drug",~80%
same,Release (%),time 4 hours,95.0%
same,Release (%),time 6 hours,99.2%
same,Release (%),time 12 hours,100%
same,time at which the model drug's concentration reached a maximum,release from nanowire scaffold on Ti foil,6 h
